Reference: PubChem BioAssay AID1996
Values after ≈ are worked out from the molar mass of the structure shown.

Conditions: buffer; pH 7.4; 200.0 µM

SMILES	solubility kinetic
CCCCCOc1ccc(C(=O)CCC(=O)NC(C)c2ccc(S(N)(=O)=O)cc2)cc1 (centres undefined)	10.9 µg/mL (≈ 24.4 µM)
Cc1ccc(CSc2nc3ccccc3c(=O)n2C)cc1	< 0.3 µg/mL
COc1ccc(NC(=O)Cc2cccs2)cc1S(=O)(=O)N1CCCCC1	44.4 µg/mL (≈ 113 µM)
CN(C)C(=O)c1c2c(nc3ccccc13)CCCC2	32.2 µg/mL (≈ 127 µM)
CC1CCCC(C)N1C(=O)COC(=O)c1ccco1 (centres undefined)	> 39.8 µg/mL
CN(CC(=O)Nc1cccc(F)c1)C(=O)c1ccncc1	> 43.1 µg/mL
O=[N+]([O-])c1ccc(OCCCOc2cccc3cccnc23)cc1	0.6 µg/mL (≈ 1.85 µM)
CCCc1ccc(S(=O)(=O)NCC2CCCN2CC)cc1 (centres undefined)	31 µg/mL (≈ 99.9 µM)
COc1cc2ncnc(N[C@H](C)c3ccccc3)c2cc1OC	> 46.4 µg/mL
c1cncc(-c2nc(NCC3CCCO3)c3ccccc3n2)c1 (centres undefined)	> 46 µg/mL
CCOc1ncccc1C(=O)Nc1ccc(S(=O)(=O)Nc2cc(C)nc(C)n2)cc1	> 64.1 µg/mL
Cc1nc(Sc2ccc(Cl)cc2)c(C#N)c(C)c1[N+](=O)[O-]	< 0.2 µg/mL
CCN(CC)S(=O)(=O)c1ccc(NCCc2ccccn2)nc1	49.2 µg/mL (≈ 147 µM)
CCCOc1ccc(C(=O)Nc2ccc(CN3CCOCC3)cc2)cc1	4.1 µg/mL (≈ 11.6 µM)
Cc1ccccc1NC(=O)CCN1CCN(C)CC1	> 39.2 µg/mL
Fc1ccccc1NC(=S)N1CCOCC1	> 36 µg/mL
Cc1cc(=O)oc2cc(OCC(=O)N3CCN(Cc4ccccc4)CC3)ccc12	56.7 µg/mL (≈ 144 µM)
CC1Cc2ccccc2N1S(=O)(=O)c1ccc(Cl)nc1 (centres undefined)	1.9 µg/mL (≈ 6.15 µM)
CNC(=O)CSc1nnc(-c2cnccn2)n1C	> 39.6 µg/mL
Cc1ccc(CSc2nsc(C)c2C#N)cc1	3.3 µg/mL (≈ 12.7 µM)
CCOc1ccccc1/C=N/OCC(=O)NCc1ccc(F)cc1	32.9 µg/mL (≈ 99.6 µM)
O=C(/C=C/c1ccccc1Cl)N1CCOCC1	36.6 µg/mL (≈ 145 µM)
O=S(=O)(NC1C2CC3CC(C2)CC1C3)c1ccc(F)cc1 (centres undefined)	23 µg/mL (≈ 74.3 µM)
COc1ccc(/C=C/C(=O)NCCCN2CCCC2)cc1	> 43.3 µg/mL

SMILES	solubility kinetic
CC(=O)c1cccc(OCC(=O)N2CCCc3ccccc32)c1	44.6 µg/mL (≈ 144 µM)
CCN1CCN(C(=O)c2ccc(C(F)(F)F)cc2)CC1	40.6 µg/mL (≈ 142 µM)
CCN(C(=O)CCc1ccccc1)C1CCCCC1	26.8 µg/mL (≈ 103 µM)
O=C(CSCc1c(Cl)cccc1Cl)Nc1cccnc1	35.9 µg/mL (≈ 110 µM)
COc1ccc(NC(=O)C2CCCC2)cc1	30.3 µg/mL (≈ 138 µM)
Clc1ccccc1N1CCN(Cc2ccco2)CC1	30.3 µg/mL (≈ 109 µM)
CCOC(=O)C1=C(CBr)NC(=O)NC1C (centres undefined)	> 41.6 µg/mL
O=C(c1csc(Nc2cccc3ccccc23)n1)N1CCCC1	13.1 µg/mL (≈ 40.5 µM)
CCCCNC(=O)C1CC(=O)N(CCc2ccccc2)C1 (centres undefined)	> 43.3 µg/mL
Cn1c(=O)n(C)c2cc(S(=O)(=O)NCC(=O)O)ccc21	> 44.9 µg/mL
Cc1cccc(OCc2nc(C#N)c(N3CCCC3)o2)c1	9.6 µg/mL (≈ 33.9 µM)
Cc1ccc2[nH]c(CSc3ccccc3)cc(=O)c2c1	14.9 µg/mL (≈ 53 µM)
COC(=O)c1cc(S(=O)(=O)N2CCCCCC2)cn1C	38.8 µg/mL (≈ 129 µM)
Cc1cc(C)c(NC(=O)CCCSc2nnc(N)s2)c(C)c1	> 50.5 µg/mL
COc1ccc(C(C)=O)cc1COc1cccnc1[N+](=O)[O-]	5.1 µg/mL (≈ 16.9 µM)
COc1ccccc1NC(=O)C/C(N)=N/OCC(=O)Nc1cccc(Cl)c1	> 58.6 µg/mL
COc1ccccc1CN(C)C(=O)c1cc2ccccc2o1	28.7 µg/mL (≈ 97.2 µM)
Cc1[nH]c2ccc(C(=O)NCCCN3CCOCC3)cc2c1C	> 47.3 µg/mL
O=C1CSCC(=O)N1c1ncc(C(F)(F)F)cc1Cl	42 µg/mL (≈ 135 µM)
Cc1ccc(C)c(NC(=S)NCCc2cnc[nH]2)c1	36.8 µg/mL (≈ 134 µM)
CC(=O)N1CCc2ccc(S(=O)(=O)N3CCc4ccccc43)cc21	0.5 µg/mL (≈ 1.46 µM)
CN(C)c1ccc(C(=O)N2CCNC(=O)C2CC(=O)Nc2ccc(F)cc2)cc1 (centres undefined)	55.1 µg/mL (≈ 138 µM)
N/C(CN1CCSCC1)=N\OCc1c(F)cccc1Cl	40.4 µg/mL (≈ 127 µM)
CC(C)C(C)NC(=O)CN1C(=O)NC2(CCc3ccccc32)C1=O (centres undefined)	> 49.4 µg/mL

SMILES	solubility kinetic
CCOc1ccc(C(C)=O)cc1COC(=O)CNC(=O)C12CC3CC(CC(C3)C1)C2	36.7 µg/mL (≈ 88.8 µM)
Cc1cc(/C=C2\SC(=S)NC2=O)c(C)n1-c1ccccc1	3.3 µg/mL (≈ 10.5 µM)
O=C(Nc1ccc([N+](=O)[O-])cc1)Nc1cnccn1	2.9 µg/mL (≈ 11.2 µM)
CC(=O)CSc1nnc(-c2ccco2)n1-c1ccccc1	> 44.9 µg/mL
CC(=O)Nc1ccc2nc(NC(=O)CN3CCOCC3)sc2c1	> 50.2 µg/mL
Cc1ccc(C(=O)CCC(=O)N2CCC(C(N)=O)CC2)s1	> 46.3 µg/mL
OCCNC(=S)NCc1ccccc1	31.5 µg/mL (≈ 150 µM)
O=C(COc1ccccc1Cl)NC1CC1	> 33.9 µg/mL
O=C(NNC(=O)c1ccccc1C(=O)O)c1cc2ccccc2o1	> 48.6 µg/mL
CCN1CCOC(CC(=O)Nc2ccc([N+](=O)[O-])cc2)C1=O (centres undefined)	40.2 µg/mL (≈ 131 µM)
CCCC(=O)N(Cc1cc(=O)[nH]c2ccccc12)c1ccccc1	> 48.1 µg/mL
O=c1cc(-c2ccncc2)oc2c1ccc1ccccc12	0.7 µg/mL (≈ 2.56 µM)
CC(C)(C)Nc1nc(-c2ccc3c(c2)CCN3C(=O)C2CC2)cs1	5.4 µg/mL (≈ 15.8 µM)
O=C(NCCOc1ccccc1)C1CCCCC1	> 37.1 µg/mL
COC(=O)c1cc(NC(=O)CN(C)C2CCS(=O)(=O)C2)cc(C(=O)OC)c1.O=C(O)C(=O)O (centres undefined)	> 73.3 µg/mL
Cc1[nH]c2ccc(C(=O)N3CCCCC3)cc2c1C	> 38.5 µg/mL
NC(=O)c1ccccc1NC(=O)c1ccc2c(c1)OCO2	3.1 µg/mL (≈ 10.9 µM)
CCn1ccnc1C(O)c1cccc2ccccc12 (centres undefined)	> 37.8 µg/mL
Cc1ccc2[nH]c3ccccc3c(=O)c2c1	5.8 µg/mL (≈ 27.7 µM)
CCc1cccc2c(C(=O)CN3C(=O)NC4(CCCCC4)C3=O)c[nH]c12	7 µg/mL (≈ 19.8 µM)
CCCCCc1nnc(NC(=O)c2ccc(=O)n(C)n2)s1	> 46.1 µg/mL
C[C@H](NC(=O)c1cccc([N+](=O)[O-])c1)C(=O)OCC(=O)c1ccccc1Br	> 65.3 µg/mL
Cc1ccnc(NC2(C(F)(F)F)N=C3SCCN3C2=O)c1 (centres undefined)	> 47.4 µg/mL
O=C(O)C(=O)O.O=[N+]([O-])c1ccccc1CNCCc1c[nH]c2ccccc12	41.8 µg/mL

SMILES	solubility kinetic
COc1ccc(-c2c(C)nn(-c3ccccc3)c2NC(C)=O)cc1OC	> 52.7 µg/mL
CSc1nc2sc3c(c2c(=S)[nH]1)CC(C)(C)OC3	10.6 µg/mL (≈ 35.5 µM)
Cn1cccc1C(=O)Nc1ccc(Cl)c(S(=O)(=O)N2CCCCC2)c1	8.7 µg/mL (≈ 22.8 µM)
CN1C2CCC1CC(NC(=O)c1cc(Cl)cc3[nH]cnc13)C2 (centres undefined)	40.7 µg/mL (≈ 128 µM)
Cc1ccc(C(=O)NCCNC(=O)COc2ccc(Cl)cc2)cn1	> 52.2 µg/mL
COc1ccc2nc(NC(=O)c3ccccc3[N+](=O)[O-])sc2c1	3 µg/mL (≈ 9.11 µM)
Cn1ccnc1C(O)(c1ccccc1)c1ccccc1	35.4 µg/mL (≈ 134 µM)
O=C(Nc1ccc(N2CCCC2)cc1)c1ccccc1[N+](=O)[O-]	2.4 µg/mL (≈ 7.71 µM)
O=C(CCCN1C(=O)c2cccnc2C1=O)Nc1ccccc1F	46.4 µg/mL (≈ 142 µM)
COc1ccc([N+](=O)[O-])cc1NC(=O)c1csc(C)c1	< 0.3 µg/mL
Cc1ccc(C(=O)OCC(=O)N2c3ccccc3NC(=O)C2(C)C)cc1S(=O)(=O)N1CCCCC1	3.6 µg/mL (≈ 7.21 µM)
N#Cc1sc(C(N)=O)c(-c2ccccc2)c1-c1ccccc1	< 0.3 µg/mL
O=C(Nc1nc(-c2ccccc2)cs1)c1ccccc1F	0.4 µg/mL (≈ 1.34 µM)
FC(F)(F)Sc1ccc(NC(=S)NCc2ccccc2)cc1	< 0.4 µg/mL
O=C(NCc1ccccc1)c1ccc2c(c1)C(=O)N(Cc1cccnc1)C2=O	38.1 µg/mL (≈ 103 µM)
CC(OC(=O)CN1C(=O)c2ccccc2C1=O)C(=O)NC1CCCCC1 (centres undefined)	> 53.8 µg/mL
CC1(C)NC(=O)N(CCOc2ccc([N+](=O)[O-])cc2)C1=O	> 44 µg/mL
CC1c2cccn2CCN1S(=O)(=O)c1ccccc1 (centres undefined)	40.3 µg/mL (≈ 146 µM)
COc1ccc(CN2C(=O)c3cccc4cccc(c34)C2=O)cc1	0.9 µg/mL (≈ 2.84 µM)
Cc1cc(NC(=O)c2cc([N+](=O)[O-])ccc2Cl)no1	> 42.2 µg/mL
O=C(Nc1cccc(NC(=O)c2ccccc2[N+](=O)[O-])c1)c1ccccc1Cl	1.3 µg/mL (≈ 3.28 µM)
Cc1ccc(CNC(=O)CCSCc2ccccc2F)cc1	11.8 µg/mL (≈ 37.2 µM)
Cc1csc(NC(=O)c2cc[n+]([O-])cc2)n1	> 35.3 µg/mL
CCOc1ccc(-c2cnc(N)n2C)cc1	31.8 µg/mL (≈ 146 µM)

SMILES	solubility kinetic
O=S(=O)(Cc1ccccc1)Nc1cccc(F)c1	37.6 µg/mL (≈ 142 µM)
CNC(=S)N1CCC(c2nc3ccccc3s2)CC1	> 43.7 µg/mL
CCCCNC1=NCCS1	> 23.7 µg/mL
O=C(COc1ccc(F)cc1)N1CCC(Cc2ccccc2)CC1	18.8 µg/mL (≈ 57.4 µM)
CCC(=O)OC1(Cc2ccc(CC)cc2)CC(C)N(C)CC1C.Cl (centres undefined)	46.9 µg/mL
Cc1ccc(CNC(=O)Cn2cccc2)cc1	> 34.2 µg/mL
Cc1ccc2[nH]c3c(c2c1)CCN1C(=O)OC(C)(C)C31C (centres undefined)	10.4 µg/mL (≈ 36.6 µM)
CC(C)CC(C(=O)Nc1ccccc1)N1C(=O)C2C3C=CC(C3)C2C1=O (centres undefined)	> 52.9 µg/mL
N#CC1=C(N)OC2=C(C(=O)CCC2)C1c1cc2c(cc1Cl)OCO2 (centres undefined)	17 µg/mL (≈ 49.3 µM)
O=[N+]([O-])c1cccnc1Oc1ccc(F)cc1F	28.3 µg/mL (≈ 112 µM)
COc1ccc(-n2cnc3sccc3c2=O)cc1	35.8 µg/mL (≈ 139 µM)
Cc1ccccc1C(=O)Nc1ccc(S(=O)(=O)Nc2onc(C)c2C)cc1	50.5 µg/mL (≈ 131 µM)
COc1cc(CC(=O)NCC2CCCCC2)cc(OC)c1OC	43.9 µg/mL (≈ 137 µM)
Cc1ccc2c(c1)C1C3CCC(C3)C1S(=O)N2 (centres undefined)	> 37.1 µg/mL
Cc1ccc(C(=O)N2CCOCC2)c(F)c1F	33.9 µg/mL (≈ 141 µM)
CCn1c(NCCO)nc2c(c1=O)C(C)(CC)Cc1ccccc1-2 (centres undefined)	12.8 µg/mL (≈ 39.1 µM)
Cc1ccc(Nc2nc(NCCO)c3ccccc3n2)cc1C.Cl	30.9 µg/mL
COc1ccccc1CC(=O)NCCN1CCCCC1	39.3 µg/mL (≈ 142 µM)
COc1ccc(OC)c(NC(=O)CCCC(=O)NC2CCCCC2)c1	> 52.3 µg/mL
COC(=O)C1=C(C)N(Cc2ccc(OC)cc2)C(=O)/C1=C\c1ccco1	7.7 µg/mL (≈ 21.8 µM)
CC(=O)Oc1ccc(-c2ccc(C(=O)OCC(=O)c3c(N)n(C)c(=O)n(C)c3=O)cc2)cc1	3.2 µg/mL (≈ 7.09 µM)
CC(=O)Nc1ccccc1S(=O)(=O)CC1CC1(Cl)Cl (centres undefined)	> 48.3 µg/mL
Cc1cnc(NC(=O)CC2CCCC2)s1	13.3 µg/mL (≈ 59.3 µM)
